{"source": "paper PMC9481570", "about": "“A small molecule antagonist of SMN disrupts the interaction between SMN and RNAP II” (Nature Communications, 2022)", "system": "GEMIN1", "assay": "AP-MS chemical proteomics, GEMIN1", "assay_type": "binding, human", "conditions": "biotin-Cmpd 1 pulldown, competition with 200 μM compound 1 relative to DMSO, U2OS lysate", "method": "The samples for AP-MS were prepared following pulldown procedure as previously described with minor modifications. Briefly, U2OS cells were lysed in RIPA buffer and the cell lysate was equally divided into two groups: (1) DMSO group (control group): the cell lysate was incubated with 20 μM biotin-labeled compound 1; (2) Cpmd 1 group (sample group): the cell lysate was incubated with 20 μM biotin-labeled compound 1 and 200 μM free compound 1. Each group contains three biological replicates. They were incubated overnight at 4 °C, then 30 μL streptavidin beads (Thermo Fisher, 20353) was added and incubated at 4 °C for 1 h. The beads were then washed with RIPA buffer for 3 times, 10 min/time. […]\nSamples were analyzed by nanoLC-MS/MS (nanoRSLC, Thermo Fisher) using an Aurora series (Ion Opticks) reversed phase HPLC column (25 cm length × 75 µm inner diameter) and directly injected to an Orbitrap Eclipse (Thermo Fisher) using a 120 min gradient (mobile phase A = 0.1% formic acid, mobile phase B = 99.9% acetonitrile with 0.1% formic acid; hold 2% B for 5 min, 2–6% B in 0.1 min, 6–25% in 100 min, 25–50% in 15 min) at a flow rate of 350 nL/min. Eluted peptide ions were analyzed using a data-dependent acquisition (DDA) method with resolution settings of 120,000 and 15,000 (at m/z 200) for MS1 and MS2 scans, respectively. […]", "data": [{"smiles": "Cn1c2c(c(=N)c3c1CCC3)CCC2", "note": "[Compound 1, 4-methyl-2,3,4,5,6,7-hexahydrodicyclopenta[b,e]pyridin-8(1H)-imine]", "values": [{"measurement": "log2 FC (Cmpd 1/DMSO), GEMIN1", "result": "−6.9"}]}]}
